Tested on: not given
Experiment: not given
Conditions: animals treated with the antagonist; cited from earlier work

Q: With `COCC1=C(C(=O)OC)[C@H](c2ccc(F)c(F)c2)N(C(=O)NCCCN2CCC(c3cccc(NC(C)=O)c3)CC2)C(=O)N1` [SNAP-7941] as the compound, how does the “body weight in long term trials” value read?
A: lose significant amounts of weight

Target: T1, hMCH-1R (Homo sapiens, UniProt Q99705)
T1 construct: expressed in transfected cells
Experiment: MCH-1 receptor binding test (125I-MCH binding to hMCH-1R transfected cell membranes)
Conditions: membranes of hMCH-1R transfected CHO/Galpha16 cells
Procedure: After the incubation the reaction is filtered using a cell harvester through 0.5% PEI treated fiberglass filters (GF/B, Unifilter Packard). The membrane-bound radioactivity retained on the filter is then determined after the addition of scintillator substance (Packard Microscint 20) in a measuring device (TopCount of Packard). […] The analysis of the concentration binding curve is carried out on the assumption of one receptor binding site.

T1 sequence (Q99705 whole entry): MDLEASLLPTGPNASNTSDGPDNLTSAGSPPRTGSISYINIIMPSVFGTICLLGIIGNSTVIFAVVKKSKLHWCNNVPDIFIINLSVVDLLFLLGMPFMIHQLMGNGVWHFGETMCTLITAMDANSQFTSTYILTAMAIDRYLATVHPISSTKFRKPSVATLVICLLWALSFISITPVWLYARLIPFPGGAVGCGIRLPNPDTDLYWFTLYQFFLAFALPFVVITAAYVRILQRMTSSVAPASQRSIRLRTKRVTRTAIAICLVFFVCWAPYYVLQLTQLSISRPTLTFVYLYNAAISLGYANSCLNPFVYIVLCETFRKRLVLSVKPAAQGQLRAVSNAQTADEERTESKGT

Q: With `CN(C(=O)C#Cc1ccc(CN2CCCC2)cc1)c1ccc(-c2ccc(Cl)cc2)cc1` [Example 1.23, 3-(4-pyrrolidin-1-ylmethylphenyl)propynoic acid-(4′-chlorobiphenyl-4-yl)methylamide] as the compound, how does the IC50 read?
A: 7.5 nM

Q: Which IC50 does the source give for `CCN(CC)CCOc1ccc(NC(=O)C#Cc2ccc(Cl)cc2Cl)c(Cl)c1` [Example 4.8, 3-(2,4-dichlorophenyl)propynoic acid-[2-chloro-4-(2-diethylaminoethoxy)phenyl]amide] here?
A: 50 nM

Q: Which IC50 does the source give for `COc1ccc(-c2ccc(NC(=O)/C=C/c3ccc(CN4CCCC4)cc3)cc2)cc1` [Example 5.1, (E)-N-(4′-methoxybiphenyl-4-yl)-3-(4-pyrrolidin-1-ylmethylphenyl)acrylamide] here?
A: 20 nM

Tested on: rats
Experiment: not given
Conditions: cited from earlier work

Q: Which “effects in behavioral experiments” value does the source give for `COCC1=C(C(=O)OC)[C@H](c2ccc(F)c(F)c2)N(C(=O)NCCCN2CCC(c3cccc(NC(C)=O)c3)CC2)C(=O)N1` [SNAP-7941] here?
A: anxiolytic and antidepressant effects

Tested on: not given
Experiment: not given
Conditions: not given

Q: For `CN(C(=O)C#Cc1ccc(CN2CCCC2)cc1)c1ccc(-c2ccc(Cl)cc2)cc1` [Example 1.23, 3-(4-pyrrolidin-1-ylmethylphenyl)propynoic acid-(4′-chlorobiphenyl-4-yl)methylamide], which melting point is on record?
A: 161 to 164 °C

Q: Which melting point does the source give for `COc1ccc(-c2ccc(NC(=O)/C=C/c3ccc(CN4CCCC4)cc3)cc2)cc1` [Example 5.1, (E)-N-(4′-methoxybiphenyl-4-yl)-3-(4-pyrrolidin-1-ylmethylphenyl)acrylamide] here?
A: 199 to 200 °C

Q: Which melting point does the source give for `CC1CN(Cc2ccc(CCC(=O)Nc3ccc(-c4ccc(Cl)cc4)cc3)cc2)CC(C)O1` (centres unmarked) [Example 6.21, N-(4′-chlorobiphenyl-4-yl)-3-[4-(2,6-dimethylmorpholin4-ylmethyl)phenyl]propionamide] here?
A: 158.5 to 160.5 °C

Q: With `O=C(CCc1ccc(CNCC2CCCCC2)cc1)Nc1ccc(-c2ccc(Cl)cc2)cc1` [Example 6.22, N-(4′-chlorobiphenyl-4-yl)-3-{4-[(cyclohexylmethylamino)methyl]phenyl}propionamide] as the compound, how does the melting point read?
A: 201 to 204 °C

Q: With `O=C(CCc1ccc(CN2CCC(N3CCCCC3)C2)cc1)Nc1ccc(-c2ccc(Cl)cc2)cc1` (centres unmarked) [Example 6.25, N-(4′-chlorobiphenyl-4-yl)-3-[4-(3-piperidin-1-ylpyrrolidin-1-ylmethyl)phenyl]propionamide] as the compound, how does the melting point read?
A: 168.8 °C

Q: With `C[C@@H]1C[C@H](C)CN(Cc2ccc(CCC(=O)Nc3ccc(-c4ccc(Cl)cc4)cc3)cc2)C1` [Example 6.26, N-(4′-chlorobiphenyl-4-yl)-3-[4-((3S,5R)-3,5-dimethylpiperidin-1-ylmethyl)phenyl]propionamide] as the compound, how does the melting point read?
A: 164 to 169 °C

Q: Which melting point does the source give for `CN(CCCN)Cc1ccc(CCC(=O)Nc2ccc(-c3ccc(Cl)cc3)cc2)cc1` [Example 6.27, 3-(4-{[(3-aminopropyl)methylamino]methyl}phenyl)-N-(4′-chlorobiphenyl-4-yl)propionamide] here?
A: 165 °C

Q: For `O=C(CCc1ccc(CN2CCC3(CCCC3)CC2)cc1)Nc1ccc(-c2ccc(Cl)cc2)cc1` [Example 6.28, 3-[4-(8-azaspiro[4.5]dec-8-ylmethyl)phenyl]-N-(4′-chlorobiphenyl-4-yl)propionamide], which melting point is on record?
A: 201.5 °C

Q: For `O=C(CCc1ccc(CN2CC[C@@H](O)C2)cc1)Nc1ccc(-c2ccc(Cl)cc2)cc1` [Example 6.29, N-(4′-chlorobiphenyl-4-yl)-3-[4-((R)-3-hydroxypyrrolidin-1-ylmethyl)phenyl]propionamide], which melting point is on record?
A: 169 to 170 °C

Q: With `CN(Cc1ccncc1)Cc1ccc(CCC(=O)Nc2ccc(-c3ccc(Cl)cc3)cc2)cc1` [Example 6.32, N-(4′-chlorobiphenyl-4-yl)-3-{4-[(methylpyridin-4-ylmethylamino)methyl]phenyl}propionamide] as the compound, how does the melting point read?
A: 102 °C

Q: Which melting point does the source give for `CN(Cc1ccc(CCC(=O)Nc2ccc(-c3ccc(Cl)cc3)cc2)cc1)Cc1cccnc1` [Example 6.33, N-(4′-chlorobiphenyl-4-yl)-3-{4-[(methylpyridin-3-ylmethylamino)methyl]phenyl}propionamide] here?
A: 168 to 169 °C

Q: Which melting point does the source give for `O=C(CCc1ccc(CNCCC2CCCCC2)cc1)Nc1ccc(-c2ccc(Cl)cc2)cc1` [Example 6.35, N-(4′-chlorobiphenyl-4-yl)-3-{4-[(cyclohexylethylamino)methyl]phenyl}propionamide] here?
A: 149 to 150.5 °C

Q: For `O=C(CCc1ccc(CNCc2ccccc2)cc1)Nc1ccc(-c2ccc(Cl)cc2)cc1` [Example 6.38, 3-[4-(benzylaminomethyl)phenyl]-N-(4′-chlorobiphenyl-4-yl)propionamide], which melting point is on record?
A: 176 °C

Q: With `O=C(CCc1ccc(CNC2CCCCC2)cc1)Nc1ccc(-c2ccc(Cl)cc2)cc1` [Example 6.39, N-(4′-chlorobiphenyl-4-yl)-3-(4-cyclohexylaminomethylphenyl)propionamide] as the compound, how does the melting point read?
A: 208 °C

Q: With `CC(C)N(Cc1ccc(CCC(=O)Nc2ccc(-c3ccc(Cl)cc3)cc2)cc1)C1CCCCC1` [Example 6.40, N-(4′-chlorobiphenyl-4-yl)-3-{4-[(cyclohexylisopropylamino)methyl]phenyl}propionamide] as the compound, how does the melting point read?
A: 165 °C

Q: Which melting point does the source give for `O=C(CCc1ccc(CNC2CCCC2)cc1)Nc1ccc(-c2ccc(Cl)cc2)cc1` [Example 6.41, N-(4′-chlorobiphenyl-4-yl)-3-(4-cyclopentylaminomethylphenyl)propionamide] here?
A: 196 to 197 °C

Q: For `CCN(Cc1ccc(CCC(=O)Nc2ccc(-c3ccc(Cl)cc3)cc2)cc1)CC(C)(C)O` [Example 6.42, N-(4′-chlorobiphenyl-4-yl)-3-(4-{[ethyl-(2-hydroxy-2-methylpropyl)amino]methyl}phenyl)propionamide], which melting point is on record?
A: 135 °C

Q: Which melting point does the source give for `CN(C(=O)CCc1ccc(CN2CCC3(CCCC3)CC2)cc1)c1ccc(-c2ccc(Cl)cc2)cc1` [Example 6.45, 3-[4-(8-azaspiro[4.5]dec-8-ylmethyl)phenyl]-N-(4′-chlorobiphenyl-4-yl)-N-methylpropionamide] here?
A: 119 °C

Q: With `O=C(Nc1ccc(-c2ccc(Cl)cc2)cc1)C1CC1c1ccc(CN2CCOCC2)cc1` (centres unmarked) [Example 6.217, 2-(4-morpholin-4-ylmethylphenyl)cyclopropanecarboxylic acid (4′-chlorobiphenyl-4-yl)amide] as the compound, how does the melting point read?
A: 187 to 188 °C

Q: Which melting point does the source give for `O=C(C#Cc1ccc(C(F)(F)F)cc1Cl)Nc1ccc2nc(N3CCCCC3)ccc2c1` [Example 7.1, 3-(2-chloro-4-trifluoromethylphenyl)propynoic acid-(2-piperidin-1-ylquinolin-6-yl)amide] here?
A: 176 to 179 °C

Q: For `CC(C)Nc1ccc2cc(NC(=O)C#Cc3ccc(C(F)(F)F)cc3Cl)ccc2n1` [Example 7.2, 3-(2-chloro-4-trifluoromethylphenyl)propynoic acid-(2-isopropylaminoquinolin-6-yl)amide], which melting point is on record?
A: 57 to 60 °C

Reference: patent publication US7592373B2 (Boehringer Ingelheim International GmbH, priority 2003, dated 2009)
